The test system of one test is Penicillium avellaneum. In words: agar plate paper-disc inhibition zone screening. It is filed as cell-based. As to conditions: Hamigera avellanea, read-out: Inhibition Zone Diameter mm (Dose mg/ml) P. Avellaneum; for zone of inhibition at 3000 µg/mL: Dose 3.0 mg/ml. How it is done: The Penicillium avellaneum is grown for six days, at 28°C, on an agar medium. This is to allow sporulation of the culture. The organism is then harvested by scraping off the cells from the agar surface (mycelia and spores) and suspending them in saline solution containing 0.05% Tween 80.
The suspension is adjusted to a light transmittancy of 20%. One ml of this suspension is used to inoculate 100 ml of the molten-agar assay medium.
(§1) Stainless steel frames, 12.3 x 25.3 cm (ID) and glass plates, 15.3 x 31.7 cm are used to make the test trays. The frames are attached to the plates with tape at each end and the inner edges sealed with 2% agar. Twenty five ml of inoculated assay medium is spread evenly on each tray and allowed to solidify. The trays are covered, inverted, and refrigerated until used.
(§2) The compounds or samples to be tested are dissolved in suitable solvents, e.g., alcohols, dimethylsulfoxide, or N,N-dimethylformamide. The samples are generally dissolved so that the final concentration of the solvent is <10%.^* The compounds are tested at different concentrations: 3,000; 1,000; 500; 100; and 10 mcg/ml. Paper discs (12.7 mm diameter) are placed on the agar trays with forceps, then 0.08 ml of the dissolved compound is pipetted onto each disc using a 0.2 ml pipette.
(§3) The disked agar trays are incubated overnight (18-20 hours) at 37°C for the bacterial cultures and 28°C for the yeasts. The Penicillium avellaneium tray is incubated for at least […] since it is a slower- growing organism.
(§4) Active compounds show a zone of inhibition around the disc. The diameter of the zone is measured in mm. The zone diameter of active compounds ranges from a minimum of 13.5 mm to as high as 60 mm. The size of the zone diameter generally reflects the activity of the compound: the larger the zone the greater the activity.

The subject of another test is Bacillus subtilis. The test is described as follows: agar plate paper-disc inhibition zone screening. The following applies: read-out: Inhibition Zone Diameter mm (Dose mg/ml) B. Subtilis; for zone of inhibition at 3000 µg/mL: Dose 3.0 mg/ml; for zone of inhibition at 1000 µg/mL: Dose 1.0 mg/ml. The test is classed as cell-based. How it is done:
(§5) The bacterial and yeast isolates are maintained in agar slants or in liquid media, hereby designated as inoculum media. The cultures are transferred at regular intervals in such media. (See Table for the corresponding inoculum media of each culture.) The organisms are generally transferred on to agar slants or liquid inoculum media and incubated overnight (18-20 hours): 37°C for the bacterial isolates and 28°C for the fungal cultures.
(§6) The microbial cells from the overnight agar slants are then scraped off and suspended in saline solution (0.85% NaCI). The microbial concentrations are adjusted to a light transmittancy of 20-35%, Junior Coleman Spectrophotometer (555 M). For the organisms that are maintained in liquid media, an aliquot of the culture suspension is simply diluted with saline to 20-35% light transmittancy.
(§7) The above microbial suspension serve as inocula for the assay plates. Thus, 0.16-10 ml (see Table for exact amount) are used to inoculate 100 ml of the molten-agar assay medium.
as §1, §2, §3, §4

A further test has as its system Escherichia coli. In words: agar plate paper-disc inhibition zone screening. It is filed as cell-based. The following applies: read-out: Inhibition Zone Diameter mm (Dose mg/ml) E. Coli; for zone of inhibition at 3000 µg/mL: Dose 3.0 mg/ml; for zone of inhibition at 500 µg/mL: Dose 0.5 mg/ml. How it is done:
as §5, §6, §7, §1, §2, §3, §4

A further test deals with Aerobacter aerogenes. In words: agar plate paper-disc inhibition zone screening. The test is classed as cell-based. The following applies: Klebsiella aerogenes, read-out: Inhibition Zone Diameter mm (Dose mg/ml) A. Aerogenes; for zone of inhibition at 3000 µg/mL: Dose 3.0 mg/ml. How it is done: as §5, §6, §7, §1, §2, §3, §4
For another test, the system named is Streptococcus faecalis. In words: agar plate paper-disc inhibition zone screening. It is filed as cell-based. As to conditions: Enterococcus faecalis, read-out: Inhibition Zone Diameter mm (Dose mg/ml) S. Faecalis; for zone of inhibition at 3000 µg/mL: Dose 3.0 mg/ml. How it is done: as §5, §6, §7, §1, §2, §3, §4
Test [1] has as its system lymphocytic leukemia P388. In words: in vivo lymphocytic leukemia P388 test. More on the design: species or system mice. The following applies: Mus musculus, P388, ip, 720 h, two single doses four days apart, read-out: T/C × 100 (Percent). The method, then: The in vivo lymphocytic leukemia P388 test is carried out by the United States National Cancer Institute. The animals used are either male or female CD2F, mice. There are six to seven animals per test group. The tumor transplant is by intraperitoneal injection of dilute ascitic fluid containing cells of lymphocytic leukemia P388. The test compounds are administered intraperitoneally in two single doses with a four-day interval between doses at various dose levels following tumor inoculation. The animals are weighed and survivors are recorded on a regular basis for 30 days. A ratio of survival time for treated (T)/ control (C) animals is calculated. The criterion for efficacy is T/C x 100 > 125%. The positive control compound in this test is 1,4-dihydroxy-5,8-[bis[[2-[(2-hydroxyethyl)amino]-ethyl]amino]-9,10-anthracene- dione given at dosages ranging from 12.0 to 0.075 mg/kg. See Cancer Chemotherapy Reports, Part 3, 3, 1 (1972) for a comprehensive discussion of the protocol.

Turning to `CN(C)CCNCCn1nc2c3c(c(Cl)ccc31)C(=O)c1c(O)ccc(O)c1-2` [7,10-(OH)2; Cl*; (CH2)2NH(CH2)2NMe2, 5-Chloro-2-[2-[[2-(dimethylamino)ethyl]amino]ethyl]-7,10-dihydroxyanthra[1,9-cd]pyrazol-6(2H)-one], the zone of inhibition at 3000 µg/mL in the test with Penicillium avellaneum was determined as 0 mm; in the test with Bacillus subtilis, 14 mm; in the test on Escherichia coli, 0 mm; with Aerobacter aerogenes, 0 mm; with Streptococcus faecalis, 0 mm.

With `CN(C)CCn1nc2c3c(c(Cl)ccc31)C(=O)c1c(O)ccc(O)c1-2` [7,10-(OH)2; Cl*; (CH2)2NMe2, 5-Chloro-2-[2-(dimethylamino)ethyl]-7,10-dihydroxyanthra[1,9-cd]pyrazol-6(2H)-one], the zone of inhibition at 500 µg/mL with Penicillium avellaneum (Dose 0.5 mg/ml) amounted to 15 mm. The zone of inhibition at 3000 µg/mL with Bacillus subtilis turned out to be 0 mm; in the test with Aerobacter aerogenes, 15 mm; with Streptococcus faecalis, 0 mm. Also, in the test on Escherichia coli (Dose 1.0 mg/ml), the zone of inhibition at 1000 µg/mL stood at 14 mm.

`CCN(CC)CC(O)Cn1nc2c3c(c(Cl)ccc31)C(=O)c1c(O)ccc(O)c1-2` (centres unmarked) [7,10-(OH)2; Cl*; CH2CHOHCH2NEt2, 5-Chloro-2-[3-(diethylamino)-2-hydroxypropyl]-7,10-dihydroxyanthra[1,9-cd]pyrazol-6(2H)-one]: the zone of inhibition at 3000 µg/mL in the test on Penicillium avellaneum is 14 mm; in the test on Bacillus subtilis, 14 mm; in the test with Aerobacter aerogenes, 0 mm; with Streptococcus faecalis, 14 mm. Further, the zone of inhibition at 500 µg/mL in the test with Escherichia coli was 14 mm.

Turning to `CN(CCO)CCn1nc2c3c(c(Cl)ccc31)C(=O)c1c(O)ccc(O)c1-2` [7,10-(OH)2; Cl*; Me | (CH2)2N (CH2)2OH, 5-Chloro-7,10-dihydroxy-2-[2-[(2-hydroxyethyl)methylamino]ethyl]anthra[1,9-cd]pyrazol-6(2H)-one], the zone of inhibition at 3000 µg/mL in the test with Penicillium avellaneum was determined as 0 mm; with Bacillus subtilis, 0 mm; in the test with Escherichia coli, 14 mm; in the test on Aerobacter aerogenes, 0 mm; with Streptococcus faecalis, 0 mm.

In the case of `CCCCCCNc1ccc2c3c(nn2CCN(CC)CC)-c2ccccc2C(=O)c13` [Example 8, 2-[2-(Diethylamino)ethyl]-5-(hexylamino)anthra[1,9-cd]pyrazol-6(2H)-one], the zone of inhibition at 3000 µg/mL in the test with Penicillium avellaneum turned out to be 16 mm; with Escherichia coli, 0 mm; in the test with Aerobacter aerogenes, 0 mm; in the test on Streptococcus faecalis it was 0 mm. Moreover, the zone of inhibition at 1000 µg/mL in the test on Bacillus subtilis is 16 mm.

Take `O=C1c2ccccc2-c2nn(CCO)c3ccc(NCCNCCO)c1c23` [Example 12, 2-(2-Hydroxyethyl)-5-[[2-[(2-hydroxyethyl)amino]ethyl]amino]anthra[1,9-cd]pyrazol-6(2H)-one]: the zone of inhibition at 3000 µg/mL with Penicillium avellaneum amounted to 0 mm; in the test with Escherichia coli, 14 mm; in the test with Streptococcus faecalis, 16 mm. For the same compound, the zone of inhibition at 100 µg/mL in the test with Bacillus subtilis (Dose 0.1 mg/ml) was found to be 14 mm. Besides, the zone of inhibition at 500 µg/mL in the test with Aerobacter aerogenes (Dose 0.5 mg/ml) is 14 mm.

Take `O=C1c2ccccc2-c2nn(CCO)c3ccc(NCCN4CCOCC4)c1c23` [Example 14, 2-(2-Hydroxyethyl)-5-[[2-(4-morpholinyl)ethyl]amino][1,9-cd]pyrazol-6(2H)-one]: the zone of inhibition at 3000 µg/mL with Penicillium avellaneum was determined as 0 mm; in the test on Escherichia coli, 16 mm; in the test on Aerobacter aerogenes, 0 mm; in the test on Streptococcus faecalis, 0 mm. The zone of inhibition at 1000 µg/mL with Bacillus subtilis is 16 mm.

As for `CCN(CC)CCCCNc1ccc2c3c(nn2CCO)-c2ccccc2C(=O)c13` [Example 16, 5-[[4-(Diethylamino)butyl]amino]-2-(2-hydroxyethyl)anthra[1,9-cd]pyrazol-6(2H)-one], the zone of inhibition at 3000 µg/mL with Penicillium avellaneum, in the test on Escherichia coli, in the test with Aerobacter aerogenes and in the test with Streptococcus faecalis was 0 mm in each case. Besides, the zone of inhibition at 1000 µg/mL in the test on Bacillus subtilis is 25 mm.

As to `CCN(CC)CCCCCCCNc1ccc2c3c(nn2CCO)-c2ccccc2C(=O)c13` [Example 17, 5-[[7-(Diethylamino)heptyl]amino]-2-(2-hydroxyethyl)anthra[1,9-cd]pyrazol-6(2H)-one], the zone of inhibition at 3000 µg/mL in the test with Penicillium avellaneum, with Escherichia coli, with Aerobacter aerogenes and in the test with Streptococcus faecalis was 0 mm each time. Also, the zone of inhibition at 1000 µg/mL with Bacillus subtilis was found to be 20 mm.

Take `O=C1c2ccccc2-c2nn(CCNCCO)c3ccc(NCCO)c1c23` [Example 24, 5-[(2-Hydroxyethyl)amino]-2-[2-[(2-hydroxyethyl)amino]ethyl]anthra[1,9-cd]pyrazol-6(2H)-one]: the zone of inhibition at 3000 µg/mL in the test on Penicillium avellaneum was determined as 0 mm. The zone of inhibition at 500 µg/mL in the test on Bacillus subtilis (Dose 0.5 mg/ml) was found to be 18 mm; with Escherichia coli, 15 mm. Moreover, the zone of inhibition at 1000 µg/mL in the test with Aerobacter aerogenes (Dose 1.0 mg/ml) and in the test with Streptococcus faecalis (Dose 1.0 mg/ml) was 14 mm each time.

Regarding `Cn1nc2c3c(c(NCCN)ccc31)C(=O)c1c(O)ccc(O)c1-2` [Example 40, 5-[(2-Aminoethyl)amino]-7,10-dihydroxy-2-methylanthra[1,9-cd]pyrazol-6(2H)-one], the zone of inhibition at 3000 µg/mL in the test with Penicillium avellaneum came to 0 mm; in the test on Bacillus subtilis, 0 mm; in the test on Escherichia coli, 14 mm; in the test on Aerobacter aerogenes it was 14 mm; in the test with Streptococcus faecalis it was 14 mm.

`CCN(CC)CCn1nc2c3c(c(Cl)ccc31)C(=O)c1c(O)ccc(O)c1-2` [Example 49, 5-Chloro-2-[2-(diethylamino)ethyl]-7,1 0-dihydroxyanthra[1,9-cd] pyrazol-6(2H)-one]: the zone of inhibition at 3000 µg/mL in the test with Penicillium avellaneum was determined as 16 mm; in the test on Escherichia coli it was 0 mm; in the test on Aerobacter aerogenes, 0 mm; in the test on Streptococcus faecalis it was 0 mm. Also, the zone of inhibition at 1000 µg/mL in the test with Bacillus subtilis was determined as 14 mm.

On to `O=C1c2cccc(O)c2-c2nn(CCNCCO)c3ccc(NCCNCCO)c1c23` [Example 85, 10-Hydroxy-2-(2-[(2-hydroxyethyl)amino]ethyl]-5-[[2-[(2-hydroxyethyl)amino]ethyl]amino]anthra[1,9-cd] pyrazol-6(2H)-one], for which the figures for the zone of inhibition at 3000 µg/mL in the test on Penicillium avellaneum, in the test on Bacillus subtilis and in the test with Streptococcus faecalis were 0 mm, 14 mm and 0 mm, respectively. In addition, the response vs control in vivo at 25 mg/kg in test [1] (P388, Dose 25 mg/kg intraperitoneally) is 163%. In addition, in test [1] (P388, Dose 50 mg/kg intraperitoneally), the response vs control in vivo at 50 mg/kg was determined as 172%.

The record behind these values is patent publication EP0103381B1, “Substituted anthra(1,9-cd)pyrazol-6(2H)-ones” (WARNER-LAMBERT COMPANY, priority 1982, dated 1984).
